Measurements as given in the NIST ThermoML archive (doi:10.1016/j.jct.2012.02.015).
± gives the expanded uncertainty stated by the source.

Details: 101.33 kPa, Liquid, Alternating current cell with electrodes

[F-].[Li+] [lithium fluoride]
Details | electrical conductivity [S/m]
1131 K | 855 ± 9
1136 K | 858 ± 9
1151 K | 868 ± 9
1169 K | 877 ± 9
1173 K | 880 ± 9
1184 K | 886 ± 9
1190 K | 888 ± 9
1194 K | 890 ± 9
1198 K | 892 ± 9
1206 K | 896 ± 9
1210 K | 897 ± 9
1217 K | 900 ± 9
1221 K | 899 ± 9
1229 K | 905 ± 9
1232 K | 907 ± 9
1233 K | 907 ± 9
1237 K | 908 ± 9
1244 K | 911 ± 9
1245 K | 911 ± 9
1258 K | 916 ± 9
1267 K | 918 ± 9
1269 K | 918 ± 9
1283 K | 923 ± 9

[Br-].[K+] [potassium bromide]
Details | electrical conductivity [S/m]
1131 K | 190 ± 2
1136 K | 191 ± 2
1151 K | 194 ± 2
1169 K | 196 ± 2
1190 K | 200 ± 2
1198 K | 201 ± 2
1210 K | 202 ± 2
1221 K | 203 ± 2
1229 K | 204 ± 2
1233 K | 204 ± 2
1237 K | 205 ± 2
1245 K | 205 ± 2

[I-].[K+] [potassium iodide]
Details | electrical conductivity [S/m]
1109 K | 158 ± 2
1126 K | 160 ± 2
1143 K | 161 ± 2
1152 K | 163 ± 2
1160 K | 164 ± 2
1170 K | 165 ± 2
1176 K | 165 ± 2
1186 K | 166 ± 2
1203 K | 166 ± 2
1225 K | 167 ± 2
1236 K | 167 ± 2
1246 K | 168 ± 2
1252 K | 167 ± 2
1269 K | 167 ± 2

[Br-].[Rb+] [rubidium bromide]
Details | electrical conductivity [S/m]
1173 K | 151 ± 2
1184 K | 152 ± 2
1194 K | 153 ± 2
1206 K | 154 ± 2
1217 K | 154 ± 2
1232 K | 155 ± 2
1244 K | 156 ± 2
1258 K | 157 ± 2
1269 K | 157 ± 2

[I-].[Rb+] [rubidium iodide (RbI)]
Details | electrical conductivity [S/m]
1126 K | 120 ± 1
1154 K | 122 ± 1
1166 K | 124 ± 1
1188 K | 126 ± 1
1198 K | 127 ± 1
1210 K | 128 ± 1
1216 K | 128 ± 1
1233 K | 130 ± 1
1248 K | 132 ± 1
1260 K | 133 ± 1
1266 K | 133 ± 1
1297 K | 135 ± 1
1309 K | 136 ± 1
